pEC50: −log10 of the molar value.
Legend:
[1] = tested on: Mice (male, C57Bl/6); assay: Pulmonary LPS challenge assay in mice; format: in vivo; conditions: 30 mg/kg, oral gavage once daily for three days; BALF 24 h post LPS
Procedure: Mice (male, C57Bl/6) were acclimatized for a period of about 7 days before initiation of the experiment and randomized on the day prior to treatment. Mice received vehicle or representative test compounds of the invention (i.e., test compounds) once daily for three days by oral gavage on Day −2, Day −1 and on Day 0 (the last dose being 1 h prior to LPS administration). One group of mice received the reference standard, dexamethasone, once, IP on Day 0 at 1 h prior to LPS administration. Pulmonary inflammation was induced in all animals except the sham control animals by intratracheal instillation of 20 μg LPS per animal in 50 μl saline. Sham control animals received 50 μl saline alone.
Twenty-four hours post LPS administration, animals were euthanized and the trachea was cannulated. Cold Hanks Balanced Salt Solution (HBSS) (SIGMA; Catalogue number: H1387), pH 7.2, was infused into the lungs and bronchoalveolar lavage fluid (BALF) was collected.
Total leukocyte counts were performed from the collected BALF using a mini flow-cytometer and differential counts were performed in cytospin smears stained with Leishman's staining manually. ELISA kits were used for quantification of cytokines in the BALF (TNFα, IL-1β, IL-6 and KC). Reagents, samples and standards were prepared as per kit manual. Total protein analysis in BALF samples were performed using the Biorad protein assay reagent. […]

[2] = tested on: Mice (male, C57Bl/6); assay: Formalin pain assay in mice; format: in vivo
Procedure: Mice (male, C57BL/6) were placed singly in a Perspex chamber for approximately 30 min on three successive days to acclimate and thereby reduce stress-induced behaviors. On the fourth day, the experimental animals received a 25 μl injection of 2.5% formalin beneath the left plantar skin using a 29-gauge syringe. […] The total time spent on flinches/licking/biting of the hind paw was recorded by visual observation for every 5 min period/interval for total observation duration of 60 min in two phases, the early phase (0-5 min) and the late phase (15-40 min). Observers were blinded to the treatment group allocation.
For test compounds, the % protection from 0-60 min was used to assess activity. Scoring for the test compounds was as follows: “A” represents a % protection of 81 to 100%, “B” represents a % protection of 61 to 80%, “C” represents a % protection of 31 to 60% and “D” represents a % protection of 0 to 30%.

[3] = tested on: Rats (female, Sprague-Dawley); assay: Rat ketamine cystitis (visceral pain); format: in vivo
Procedure: Rats (female, Sprague-Dawley) received daily intraperitoneal injections of saline (sham control) or ketamine (50 mg/kg) for 14 days. […] Referred mechanical sensitivity was assessed on Day 7 and Day 14 by application of a series of von Frey filaments to the lower abdomen and the nociceptive threshold was scored.

[4] = tested on: Rat DRG; assay: Rat dorsal root ganglion excitability response (EFS, Ca2+ transients); format: cell-based; conditions: Rattus norvegicus; Table 3; electrical field stimulation, Ca5 indicator; read-out: Scoring (EC50, Rat DRG excitability)
Method in brief: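 Adult rat DRG cells cultured for 2 days were loaded with the Ca5 dye 1 h before electrical field stimulation under four protocols. Compounds were tested at six concentrations (typically top 30 μM, 1:3 steps, duplicate), added either 24 h before or directly before EFS. The read-out was the per-well peak/baseline fluorescence ratio change, with imaging used to check for toxicity.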

[5] = tested on: Rats (male, Sprague-Dawley); assay: Rat carrageenan-induced hyperalgesia and paw edema; format: in vivo; conditions: 30 mg/kg, administered at the time of, or 1 h after challenge
Procedure: Representative compounds of the invention (i.e., test compounds) were administered PO, QD for 3 days prior to carrageenan injection, once at 1 h prior to carrageen, or at 5 min or 1 h post-challenge to rats (male, Sprague-Dawley). Rats received either an intraplantar injection of saline (sham) or carrageen (0.1 mL of a 2% solution [w/v]) in the right hind paw. Mechanical hyperalgesia (using an analgesymeter) and paw volume (using a digital plethysmometer) were measured at baseline (0 hr), 2, 4 and 6 h post carrageenan injection for all the animals. Celecoxib, given 1 h prior to carrageen challenge, was used as a reference standard.

[6] = tested on: male Sprague-Dawley rats; assay: Rat chronic prostatitis/chronic pelvic pain (carrageenan); format: in vivo; conditions: Day 3, 30 mg/kg dose, oral gavage QD
Procedure: Representative compounds of the invention (i.e., test compounds) were administered for 11 days by oral gavage in 0.9% saline (3, 10 or 30 mg/kg QD; 5 mL/kg dose volume) to male Sprague-Dawley rats. Carrageenan-mediated chronic prostatitis/chronic pelvic pain (CP/CPPS) established in rats (10 per group) by administration of an intraprostatic injection of carrageenan (˜12.5 μL/lobe of a 30 mg/mL solution) into both ventral prostate lobes, on Day 0. Referred mechanical sensitivity was measured on Days 0, 1, 3 and 7, 2 hours after test compound, or vehicle (saline) administration, by applying 6 von Frey filaments with increasing forces of 0.16-2 g to the scrotal skin area, 3 times each for 1-2 seconds, with a 5-second interval between applications. Responses were scored (zero-no response; one-reaction of the animal, two-jump, and three-licking the site) and expressed as the nociceptive threshold for each day of assessment. Ibuprofen was used as a reference standard.
According to the above assay, Compound Ia-1 restored nociceptive threshold to 65% of baseline on Day 3 at the 30 mg/kg dose as compared to the reference standard, ibuprofen (300 mg/kg), which restored the threshold to 120% of the baseline.

C=C1CC[C@H]2[C@H](CN)[C@@H]([C@@]3(C)Cc4cn[nH]c4C[C@@H]3CO)CC[C@]12C [Ia-1, ((5R,6S)-5-((3aS,4R,5S,7aS)-4-(aminomethyl)-7a-methyl-1-methyleneoctahydro-1H-inden-5-yl)-5-methyl-4,5,6,7-tetrahydro-1H-indazol-6-yl)methanol]
% protection from neutrophilia [1]: 44% | % inhibition, early phase (neurogenic pain) ([2]; 30 mg/kg dose, 0-5 min): 59% | % inhibition, late phase (inflammatory pain) ([2]; 30 mg/kg dose, 15-40 min): 52% | Scoring (% protection from 0-60 min) ([2]; Table 7, formalin 2.5%, left plantar): B (a % protection of 61 to 80%) | increase in the nociceptive threshold (relative to unchallenged) ([3]; 1.0 mg/kg dose, PO, QD): 61% | increase in the nociceptive threshold (relative to unchallenged) ([3]; 3.0 mg/kg dose, PO, QD): 69% | increase in the nociceptive threshold (relative to unchallenged) ([3]; 10 mg/kg dose): 85% | pEC50 [4]: 4.82 to 5.22 | average increase in the paw withdrawal threshold as compared to the vehicle [5]: 41% | nociceptive threshold restored, % of baseline [6]: 65%

— patent US11420962B2, “Indene derivatives useful in treating pain and inflammation” (TARO PHARMACEUTICALS INC., priority 2018, dated 2022)
